Experimental data from patent US5225436A, “Aryl substituted naphthalene derivatives” (Schering Corporation, priority 1991, dated 1993).
Where two headings read alike, the source gives them in different places.

Key:
[1] = test system: SRS-A / leukotriene release from antigen-challenged, sensitized guinea pig lung; assay: Inhibition of SRS-A (leukotriene) release from antigen-challenged, sensitized guinea pig lung; format: cell-based; set-up: inhibition: dose or concentration left out as unconfirmed; details: Cavia porcellus; for inhibition: Dose 30 μm (μM)
Description: The anti-allergy method of this invention is identified by tests which measure a compound's inhibition of leukotriene release in sensitized guinea pigs. Sensitized guinea pigs are killed by a blow to the head and the lungs removed and cleaned of visible connective tissue, trachea and large blood vessels. The lungs from individual animals are sliced into fragments approximately 1 mm in thickness using a McIlwain tissue chopper and then washed with oxygenated Tyrode's buffer. Weighed aliquots (approximately 400 mg wet weight) of lung are transferred into vials containing 2 ml of fresh Tyrode's solution (containing 10 mM cysteine) and incubated in the presence or absence of test compound for 12 min at 37° C. The tissues are then challenged with 20 μg ovalbumin/ml (final concentration) and incubated for 15 min. To measure leukotriene release, an aliquot of supernatant fluid is extracted with 4 volumes of 100% ethanol. After removal of the precipitated protein, the clear fluid is dried under a stream of N2 gas. The leukotriene content is measured by a radioimmunoassay using [^3 H]LTC4 and antiserum obtained from New England Nuclear. The cross-reactivity of the antiserum for LTD4 is 55%. Percent inhibition of lekotriene release is calculated by comparing for each lung the release in the presence of the test compound to that in the absence of test compound. Representative compounds of the invention at a relative dose of 50 μM of tissue are found to inhibit leukotriene release in the test procedure as indicated below in Table 1: […]

[2] = molecular target: T1, 5-lipoxygenase (Homo sapiens, UniProt P09917); assay: 5-Lipoxygenase assay with human neutrophils; format: cell-based; details: 5 min, Human PMN; for inhibition at 15 µM: dose 15 μm (μM)
T1 construct: Human polymorphonuclear leukocytes (neutrophils) were obtained from normal healthy volunteers; endogenous in cells; host or cells: human blood neutrophils from healthy volunteers
T1 sequence (P09917 1-674): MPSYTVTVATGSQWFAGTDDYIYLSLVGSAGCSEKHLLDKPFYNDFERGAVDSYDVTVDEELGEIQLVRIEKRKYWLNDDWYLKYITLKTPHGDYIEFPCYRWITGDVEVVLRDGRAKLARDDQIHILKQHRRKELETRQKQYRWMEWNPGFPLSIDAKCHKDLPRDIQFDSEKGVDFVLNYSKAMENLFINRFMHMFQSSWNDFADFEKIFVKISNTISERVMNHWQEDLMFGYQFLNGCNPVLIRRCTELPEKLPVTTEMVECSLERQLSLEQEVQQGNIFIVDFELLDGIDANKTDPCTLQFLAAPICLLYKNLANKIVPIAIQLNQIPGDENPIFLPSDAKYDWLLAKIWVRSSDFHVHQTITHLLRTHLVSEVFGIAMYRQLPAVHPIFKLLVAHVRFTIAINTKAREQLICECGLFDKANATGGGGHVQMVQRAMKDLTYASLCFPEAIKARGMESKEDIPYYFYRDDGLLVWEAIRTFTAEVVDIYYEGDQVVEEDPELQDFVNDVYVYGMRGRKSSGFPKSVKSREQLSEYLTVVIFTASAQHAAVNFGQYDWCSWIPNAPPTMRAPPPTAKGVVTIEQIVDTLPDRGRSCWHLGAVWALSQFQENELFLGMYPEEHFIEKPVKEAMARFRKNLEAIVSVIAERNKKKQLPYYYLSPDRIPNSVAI
Experimental: Human polymorphonuclear leukocytes (neutrophils) were obtained from normal healthy volunteers by venipuncture and collected with heparin anticoagulant. Neutrophils were isolated by Dextran/Ficol sedimentation as described (Billah et al., J. Biol. Chem. 260, 6899-6906 (1985)). In brief, 30 ml of blood was mixed with 5 ml of dextran (Sigma) solution and kept at 37° C. for 30 min. The upper white cell-rich layer was removed and 10 ml was layered on 9 ml of Ficol-Paque solution (Pharmacia) and centrifuged at 280 xg for 10 min. at 5° C. The supernatant was removed and the neutrophil pellet was resuspended in HEPES buffer containing 25 mM N-2-hydroxyethylpiperazine-N^1 -2-ethanesulfonic acid HEPES, 125 mM NaCl, 2.5 mM KCl, 0.7 mM MgCl2, […] 10 mM glucose at pH 7.4. The red cells in the suspension were lysed by hypotonic shock. The neutrophils were washed by centrifugation in HEPES buffer two times and finally resuspended at a concentration of 20×10^6 cells/ml in the presence of 1 mM CaCl2.
Neutrophils (0.2 ml of suspension) were preincubated with dimethylsulfoxide (DMSO) vehicle with or without test compound (1 ul) for 4 minutes then incubated for 5 minutes with [^14 C] arachidonic acid (Amersham, 59 Ci/mole) at a 9 uM final concentration, and the calcium ionophore A23187 (Calbiochem) at a 1 uM final concentration. These stimulants were added in 10 ul of water:ethanol (9:1). The reaction was stopped by addition of methanol (0.4 ml), and cellular debris was removed by centrifugation. Aliquots (100 ul) of the incubations were run on a Waters two pump HPLC system fitted with a DuPont Zorbax ODS, 5u, […] Reliance Cartridge column and C18 "Guard Pak". The column was initially eluted at 2 ml/min with 80% of the mixture water:methanol:acetic acid (46:54:0.08) containing 1 mM EDTA adjusted to pH 6.0 with ammonium hydroxide (Pump A) and 20% methanol (Pump B). At 10 minutes, a linear gradient to reach 100% methanol (Pump B) at 27 minutes was established. Between 27 and 28 minutes, methanol was exchanged for the initial eluting solvent and by 35 minutes the column had been reequilibrated for the next sample. The effluent was analyzed by a continuous flow radioactivity monitor (model ROMONA-D) interfaced with a Hewlett Packard Lab Automation System for quantitation of radioactive products. These were predominantly leukotriene B4 (LTB4) which eluted at 7 minutes, and 5-hydroxyeicosatetraenoic acid (5-HETE) which eluted at 20 minutes.

## COc1cc(O)c2c(c1)C(C)(C)C(c1ccc(OC)c(OC)c1)=CC2=O
[1]
  inhibition at 50 µM: 10%

## CC(=O)Oc1cc(OC(C)=O)c2c(c1)C(C)(C)C(c1ccc(OC(C)=O)c(OC(C)=O)c1)CC2=O (centres unmarked)
[1]
  inhibition at 50 µM: 48%

## COc1cc(OC)c2c(c1)C(C)(C)C(c1ccc(OC)c(OC)c1)=C(O)C2=O
[1]
  inhibition at 50 µM: 24%

## COc1cc(OC)c2c(c1)C(C)(C)C(c1ccc(OC)c(OC)c1)CC2Sc1ccc(Cl)cc1 (centres unmarked) [listing 1 of 2 here]
[1]
  inhibition: 14%

## COc1cc(OC)c2c(c1)C(C)(C)C(c1ccc(OC)c(OC)c1)CC21OCCO1 (centres unmarked)
[1]
  inhibition: 23%

## COc1cc(OC)c2c(c1)C(C)(C)C(c1ccc(OC)c(OC)c1)CC2=NNC(=O)c1ccccc1 (centres unmarked)
[2]; read-out: % Inhibition 5-HETE
  inhibition at 15 µM: 22%
[2]; read-out: % Inhibition LTB
  inhibition at 15 µM: 38%

## COc1cc(OC)c2c(c1)C(C)(C)C(c1ccc(OC)c(OC)c1)CC2=NNC(=O)c1ccccc1O (centres unmarked)
[2]; read-out: % Inhibition 5-HETE
  inhibition at 15 µM: 41%
[2]; read-out: % Inhibition LTB
  inhibition at 15 µM: 50%

## COc1cc(OC)c2c(c1)C(C)(C)C(c1ccc(OC)c(OC)c1)CC2=NNC(C)=O (centres unmarked)
[2]; read-out: % Inhibition 5-HETE
  inhibition at 15 µM: 0%
[2]; read-out: % Inhibition LTB
  inhibition at 15 µM: 0%

## CON=C1CC(c2ccc(OC)c(OC)c2)C(C)(C)c2cc(OC)cc(OC)c21 (centres unmarked)
[2]; read-out: % Inhibition 5-HETE
  inhibition at 15 µM: 55%
[2]; read-out: % Inhibition LTB
  inhibition at 15 µM: 47%

## COc1cc(OC)c2c(c1)C(C)(C)C(c1ccc(OC)c(OC)c1)CC2=NOC(C)=O (centres unmarked)
[2]; read-out: % Inhibition 5-HETE
  inhibition at 15 µM: 13%
[2]; read-out: % Inhibition LTB
  inhibition at 15 µM: 18%

## CC1=C(c2ccc(O)c(O)c2)C(C)(C)c2cc(O)cc(O)c2C1=O
[2]; read-out: % Inhibition 5-HETE
  inhibition at 5 µM: 13%
  inhibition at 15 µM: 90%
[2]; read-out: % Inhibition LTB
  inhibition at 5 µM: 46%
  inhibition at 15 µM: 96%

## COc1cc(OC)c2c(c1)C(C)(C)C(c1ccc(OC)c(OC)c1)CC2=NOC(=O)C(C)(C)C (centres unmarked)
[2]; read-out: % Inhibition 5-HETE
  inhibition at 15 µM: 0%

## COc1cc(OC)c2c(c1)C(C)(C)C(c1ccc(OC)c(OC)c1)CC2Sc1ccc(Cl)cc1 (centres unmarked) [listing 2 of 2 here]
[2]; read-out: % Inhibition 5-HETE
  inhibition at 15 µM: 36%

## COc1cc(OC)c2c(c1)C(C)(C)C(c1ccc(OC)c(OC)c1)CC2=NN (centres unmarked)
[2]; read-out: % Inhibition 5-HETE
  inhibition at 15 µM: 35%

## C=CCC1C(=O)c2c(OC)cc(OC)cc2C(C)(C)C1c1ccc(OC)c(OC)c1 (centres unmarked)
[2]; read-out: % Inhibition LTB
  inhibition at 15 µM: 0%

## CCOC(=O)C1C(=O)c2c(OC)cc(OC)cc2C(C)(C)C1c1ccc(OC)c(OC)c1 (centres unmarked)
[2]; read-out: % Inhibition 5-HETE
  inhibition at 15 µM: 69%
[2]; read-out: % Inhibition LTB
  inhibition at 15 µM: 89%

## COc1ccc2c(c1)C(C)(C)C(c1ccc(OC)c(OC)c1)=CC2=O
[2]; read-out: % Inhibition 5-HETE
  inhibition at 15 µM: 79%

## COc1ccc(C2CC(=O)c3c(OC)cccc3C2(C)C)cc1OC (centres unmarked)
[2]; read-out: % Inhibition 5-HETE
  inhibition at 15 µM: 23%

## COc1ccc(C2=CC(=O)c3c(OC)cccc3C2(C)C)cc1OC
[2]; read-out: % Inhibition 5-HETE
  inhibition at 15 µM: 28%

## COc1cc(O)c2c(c1)C(C)(C)C(c1ccc(OC)c(OC)c1)CC2=O (centres unmarked)
[2]; read-out: % Inhibition 5-HETE
  inhibition at 15 µM: 0%

## CC1(C)c2cc(O)cc(O)c2C(=NO)CC1c1cc(O)cc(O)c1 (centres unmarked)
[2]; read-out: % Inhibition 5-HETE
  inhibition at 15 µM: 57%

## COc1cc(OC)cc(C2=CC(=O)c3c(OC)cc(OC)cc3C2(C)C)c1
[2]; read-out: % Inhibition 5-HETE
  inhibition at 15 µM: 0%
[2]; read-out: % Inhibition LTB
  inhibition at 15 µM: 0%

## CC1(C)C(c2cc(O)cc(O)c2)=CC(=O)c2c(O)cc(O)cc21
[2]; read-out: % Inhibition 5-HETE
  inhibition at 15 µM: 11%

## COc1cc(O)c2c(c1)C(C)(C)C(c1cc(O)cc(O)c1)CC2=O (centres unmarked)
[2]; read-out: % Inhibition 5-HETE
  inhibition at 15 µM: 75%

## CC1(C)c2cc(O)cc(O)c2C(=O)CC1c1cccc(O)c1 (centres unmarked)
[2]; read-out: % Inhibition 5-HETE
  inhibition at 15 µM: 23%

## COc1cc(OC)c2c(c1)C(C)(C)C(c1ccc(OC)c(OC)c1)CC(Sc1ccccc1)C2=O (centres unmarked)
[2]; read-out: % Inhibition 5-HETE
  inhibition at 15 µM: 61%

## COc1cc(OC)c2c(c1)C(C)(C)C(c1ccc(OC)c(OC)c1)C=CC2=O (centres unmarked)
[2]; read-out: % Inhibition 5-HETE
  inhibition at 15 µM: 48%

## CC(=O)Oc1cc(OC(C)=O)c2c(c1)C(C)(C)[C@H](c1ccc(OC(C)=O)c(OC(C)=O)c1)[C@@H](OC(C)=O)C2=O (relative stereo)
[1]
  inhibition at 50 µM: 41%

## COc1cc(OC)c2c(c1)C(C)(C)[C@H](c1ccc(OC)c(OC)c1)[C@@H](OC(C)=O)C2=O (relative stereo)
[1]
  inhibition at 50 µM: 12%

## COc1ccc(C2CC(=O)Cc3c(OC)cccc3C2(C)C)cc1OC (centres unmarked) [8-(3,4-dimethoxyphenyl)-9,9-dimethyl-4-methoxy-5,7,8,9-tetrahydro-6H-benzocyclohepten-6-one]
[2]; read-out: % Inhibition 5-HETE
  inhibition at 15 µM: 61%
[2]; read-out: % Inhibition LTB
  inhibition at 15 µM: 22%

## COc1cc(OC)cc(C2CCC(=O)c3c(OC)cc(OC)cc3C2(C)C)c1 (centres unmarked) [8-(3,5-dimethoxyphenyl)-6,7,8,9-tetradydro-2,4-dimethoxy-9,9-dimethyl-5H-benzocyclohepten-5-one]
[2]; read-out: % Inhibition 5-HETE
  inhibition at 15 µM: 46%
[2]; read-out: % Inhibition LTB
  inhibition at 15 µM: 46%

## COc1cc(OC)cc(C2=CC(=O)c3c(cc(OC)c(OC)c3OC)C2(C)C)c1 [drawing 101 [R3/R4=O; E,G,P,L,K=OCH3; db yes]]
[2]; read-out: % Inhibition 5-HETE
  inhibition at 15 µM: 7%
[2]; read-out: % Inhibition LTB
  inhibition at 15 µM: 1%

## COc1cc(OC)c2c(c1)C(C)(C)CC(c1ccccc1)C2=O (centres unmarked) [drawing 102 [A=C6H5; B=H]]
[2]; read-out: % Inhibition 5-HETE
  inhibition at 15 µM: 64%

## COc1ccc(CC2CC(C)(C)c3cc(OC)cc(OC)c3C2=O)cc1 (centres unmarked) [drawing 102 [A=drawing 103; B=H]]
[2]; read-out: % Inhibition 5-HETE
  inhibition at 15 µM: 86%

## COc1ccc(CC2(Cc3ccc(OC)cc3)CC(C)(C)c3cc(OC)cc(OC)c3C2=O)cc1 [drawing 102 [A=drawing 104; B=drawing 105]]
[2]; read-out: % Inhibition 5-HETE
  inhibition at 15 µM: 88%

## COc1cc(OC)c2c(c1)C(C)(C)C(c1ccc(OC)c(OC)c1)CCO2 (centres unmarked) [drawing 106 [X=O; R3/R4=H,H; J=H; L,P=OCH3]]
[2]; read-out: % Inhibition 5-HETE
  inhibition at 15 µM: 39%
[2]; read-out: % Inhibition LTB
  inhibition at 15 µM: 28%

## COc1cc(OC)c2c(c1)C(C)(C)C(c1ccc(OC)c(OC)c1)C(C)C(=O)O2 (centres unmarked) [drawing 106 [X=O; R3/R4=O; J=CH3; L,P=OCH3], 4-(3,4-dimethoxyphenyl)-4,5-dihydro-7,9-dimethoxy-3,5,5-trimethyl-1-benzoxepin-2(3H)-one]
[2]; read-out: % Inhibition 5-HETE
  inhibition at 15 µM: 20%
[2]; read-out: % Inhibition LTB
  inhibition at 15 µM: 2%

## CC1(C)c2cc(O)cc(O)c2C(=O)CCC1c1ccc(O)c(O)c1 (centres unmarked) [drawing 107 [X=O; db no; W,J,F=H; E,G,L,P=OH]]
[2]; read-out: % Inhibition 5-HETE
  inhibition at 15 µM: 88%
